According to ChEMBL document CHEMBL4043262, “Plasma-induced dimerization of phloridzin as a new class of anti-adipogenic agents” (Bioorg Med Chem Lett, 2017):

Key:
[1] = tested on: 3T3-L1; assay: Cytotoxicity against mouse 3T3L1 cells up to 48 hrs by MTT assay; type: cell-based; details: 3t3-l1, 48 h
[2] = tested on: 3T3-L1; assay: Anti-adipogenic activity in mouse 3T3L1 cells assessed as reduction in lipid accumulation at 100 uM administered for 8 days measured post last dose by Oil Red O staining based assay relative to control; type: functional; design: scale not given: the % may be the effect or the level left
[3] = tested on: 3T3-L1; assay: Anti-adipogenic activity in mouse 3T3L1 cells assessed as reduction in lipid accumulation at 50 uM administered for 8 days measured post last dose by Oil Red O staining based assay relative to control; type: functional; design: scale not given: the % may be the effect or the level left
[4] = tested on: 3T3-L1; assay: Anti-adipogenic activity in mouse 3T3L1 cells assessed as reduction in lipid accumulation at 25 uM administered for 8 days measured post last dose by Oil Red O staining based assay relative to control; type: functional; design: scale not given: the % may be the effect or the level left
[5] = target: T1, Pancreatic triacylglycerol lipase (Sus scrofa, UniProt P00591); assay: Inhibition of porcine pancreatic lipase using p-nitrophenyl butyrate as substrate pretreated for 15 mins followed by substrate addition measured after 15 mins by spectrophotometric method
T1 sequence (P00591 whole entry): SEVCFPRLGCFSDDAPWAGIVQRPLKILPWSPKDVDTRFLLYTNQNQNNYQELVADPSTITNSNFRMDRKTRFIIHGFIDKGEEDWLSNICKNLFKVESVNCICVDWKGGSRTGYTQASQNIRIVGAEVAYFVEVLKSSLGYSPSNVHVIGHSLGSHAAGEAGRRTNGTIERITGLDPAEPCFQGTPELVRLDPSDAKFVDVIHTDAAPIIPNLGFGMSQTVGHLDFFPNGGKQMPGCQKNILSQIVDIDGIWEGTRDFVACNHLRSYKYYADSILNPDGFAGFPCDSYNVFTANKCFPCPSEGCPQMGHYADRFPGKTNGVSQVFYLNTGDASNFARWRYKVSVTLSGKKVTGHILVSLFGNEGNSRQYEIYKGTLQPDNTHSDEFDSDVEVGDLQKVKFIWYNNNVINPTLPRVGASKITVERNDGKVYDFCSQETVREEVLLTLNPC

[6] = target: T1, Pancreatic triacylglycerol lipase; assay: Inhibition of porcine pancreatic lipase using p-nitrophenyl butyrate as substrate pretreated for 15 mins followed by substrate addition measured after 15 mins in presence of plasma by spectrophotometric method

Row | Structure (SMILES) | Activity [1] | Activity [2] [%] | Activity [3] [%] | Activity [4] [%] | IC50 [5] [µM] | IC50 [6] [µM]
1 | O=C(CCc1ccc(O)cc1)c1c(O)cc(O)c(Cc2c(O)cc(O)c(C(=O)CCc3ccc(O)cc3)c2O)c1O | Non-Toxic | 36.5 | 45.7 | 60.3 | 5.2 | –
2 | O=C(CCc1ccc(O)cc1)c1c(O[C@@H]2O[C@H](CO)[C@@H](O)[C@H](O)[C@H]2O)cc(O)c(Cc2c(O)cc(O[C@@H]3O[C@H](CO)[C@@H](O)[C@H](O)[C@H]3O)c(C(=O)CCc3ccc(O)cc3)c2O)c1O | Non-Toxic | – | – | – | 257 | –
3 | O=C(CCc1ccc(O)cc1)c1c(O)cc(O)c(Cc2c(O)cc(O[C@@H]3O[C@H](CO)[C@@H](O)[C@H](O)[C@H]3O)c(C(=O)CCc3ccc(O)cc3)c2O)c1O | Non-Toxic | – | – | – | 14.7 | –
4 | O=C(CCc1ccc(O)cc1)c1c(O)cc(O)cc1O [PHLORETIN] | Non-Toxic | – | – | – | 50.4 | –
5 | O=C(CCc1ccc(O)cc1)c1c(O)cc(O)cc1O[C@@H]1O[C@H](CO)[C@@H](O)[C@H](O)[C@H]1O [PHLORIZIN] | Non-Toxic | – | – | – | > 300 | 68.3
